Experimental data reported in patent US20250017937A1, “MGLU2/3 ANTAGONISTS FOR THE TREATMENT OF INTELLECTUAL DISABILITIES” (Hoffmann-La Roche Inc., priority 2014, published 2025).

Tested on: Shank3 KO mice
Assay: Water maze cognition experiment (acquisition and reversal learning) in Shank3 KO mice
Type: in vivo, mouse
Settings: female SHANK3-KO mice
Text: Example 1: Cognition experiment in Shank3 KO mice an animal model of ASD with reported impairment in cognition
11-12 female wild-type and Shank3 KO mice on C57B16/J background were from F. Hoffmann La Roche breeding facilities, and were 10 weeks old at the beginning of the study. 20male Nlgn3 knockout rats and 20 littermate wild-type controls (background: Sprague Dawley) were from F. Hoffmann La Roche breeding facilities. All rats and mice were group-housed in holding rooms at controlled temperature (20-22° C.), humidity (55-65%) and 12-h light/dark cycle (lights on 06:00 h). All animals were allowed ad libitum access to food and water. The experimental procedures used in the present investigation received prior approval from the City of Basel Cantonal Animal Protection Committee based on adherence to federal and local regulations.
II-a were synthesized at F. Hoffmann-La Roche Ltd. according to procedures known in the art^12. Both compounds were prepared as a suspension in 0.3% Tween 80 v/v 0.9% saline and administered per os by gavage using an administration volume of 5 ml/kg (rat) or 10 ml/kg (mouse). […] All doses reported in this study are expressed as free base equivalents.
On days 1-7, II-a was administered once daily per os with 10 mg/kg (WT: n=11: KO: n=12) or vehicle (WT: n=12; KO: n=12), 3 h prior to testing from day 1 of water maze until the last day of testing. The dose of II-a was reduced to 7 mg/kg on days 8-16. Water maze was conducted on days 1-12 of treatment, with 2 days for “shaping” prior to the start of drug treatment. The grooming/digging test was conducted on days 15-16. […]
Data analysis: The mean latency, path length, and swim speed were assessed during acquisition and reversal learning. In the probe trial, the percent time spent searching for the previous platform in each quadrant (left, platform, right, and opposite), and the number of platform crossings were measured.

**Q.** How did the “latency to reach platform (mean latency during acquisition and reversal learning)” value (FIGS. 1 and 2, C57BL/6j background, 10 weeks old, II-a 10 mg/kg po chronic vs Veh) turn out when `Cc1cc(-c2ccc(C(F)(F)F)cc2)cc(-c2cccc(-c3cccc(S(N)(=O)=O)c3)n2)n1` [II-a] was run?
**A.** some improvement in latency to reach platform in KO mice only

**Q.** And the “path length during acquisition and reversal learning” value (FIGS. 1 and 2, II-a 10 mg/kg po chronic vs Veh)?
**A.** significant block 7

**Q.** What about the “memory impairment in the KO-Veh compared to WT-Veh (water maze)” value (FIGS. 3 and 4, II-a 10 mg/kg po chronic, repeated measures analysis of variance) of the same molecule?
**A.** improvement
